Test results from US10785978B2, “Control and repellency of biting flies, house flies, ticks, ants, fleas, biting midges, cockroaches, spiders and stink bugs” (priority 2012, dated 2020).

Legend:
Type in all cases: in vivo
German cockroaches = experiment: German cockroach repellency, choice of food stations in arena; conditions: 50% in acetone; at 4 hours
Protocol: The efficacy of compounds of this invention to control or repel German cockroaches was illustrated using the following protocol. One food pellet each was placed on a paper square (station) treated with one of the repellent materials. Materials were diluted to 50% in acetone and a straight acetone station was also used. Both stations were placed on the same side of the arena. Cockroaches were starved for 2 days and then released into the arena. They were given a choice to feed on either food pellet. A control arena with an acetone treated station and an untreated station was also used. The distribution of cockroaches within the arena was recorded at 30 minute intervals over 4 hours. Repellency at 4 hours was calculated by the number of cockroaches on the untreated station vs. the total number of cockroaches on the stations.

[1] = test system: Brown Dog Ticks, Rhipicephalus sanguineus; experiment: Brown Dog tick repellency on vertical filter paper strips; conditions: for ticks repelled: concentration not given
Protocol: Control against Brown Dog ticks was determined in the following protocol. Strips of filter paper, 1″ by 3″, were placed on a sheet of aluminum foil treated with 1 ml each of the test samples and allowed to dry. The end of each treated strip was stapled to an untreated filter paper strip of the same dimensions. The stapled strips were suspended in a vertical position above a tray, with the treated half attached to a horizontal glass rod by a metal clip. The untreated half was lowered when the strip is vertically positioned. Brown Dog Ticks, Rhipicephalus sanguineus, mixed sexes, were purchased from a supplier. Five replicates of five ticks for each treatment regimen plus five additional replicates for the control were employed. Ticks shipped to the test site were given at least one day to acclimate to “shipping stress” before they are used for testing. Those tick specimens which appeared sluggish or moribund were not used. Suitable ticks were removed from their containers and allowed to quest on the free end of the test strip. Once present on the strip they were watched as they crawled up the strip until they contacted the treated paper. If the tick, once in contact with the treated zone, either turned around, stopped without proceeding further, or dropped off, the tick is classified as repelled. If it continued to crawl onto the treated strip, even after it stopped briefly, that tick was classified as not repelled. A maximum observation time of 1 minute per replicate was allowed for ticks to respond after reaching the treated area, but during the test, if more time was needed, the maximum observation time may have been adjusted at the discretion of the study coordinator. At the end of the observation time, the number of ticks repelled was recorded. Tick behavior was recorded when applicable, such as whether increased number of affected or repelled ticks occurred in successive replicates over time. After the completion of each treatment parameter, the testing chamber was ventilated for five minutes by turning on the exhaust fan and opening the door leading into the chamber. Ticks were used only once. Average number of ticks displaying each behavior category were calculated and compared to the control replicates.

stable flies = experiment: Stable fly probing on treated warmed blood-filled membranes; conditions: for Probes at 7% test compound: 7% in isopropyl alcohol on membrane; for Probes at 7% test compound / Probes at 15% test compound: twenty minutes, percent of control probes taken as 100%; for Probes at 15% test compound: 15% in isopropyl alcohol on membrane; for repellency compared with DEET: at the same concentrations (7% and 15%)
Protocol: Five replicates of 100 mixed-sex stable flies each were placed in screened cages. The cages were placed in such a way that the stable flies had access to five warmed, blood-filled membrane walls. The membranes were treated with methyl dihydrojasmonate, gamma-dodecalactone, methyl apritone, or DEET® all at 7% and at 15% in isopropyl alcohol, or isopropyl alcohol as a control. There were five replicates tested with a positional rotation of the repellent at each replicate. Fresh batches of stable flies were used for each replicate. Thus each test sample was tested on each of the five wells, which allowed any positional bias to be eliminated. The number of stable flies probing each well was recorded at two minute intervals for twenty minutes. The total number of probes on each well were tallied at the end of the twenty minute observation period and the average percentage repellency was calculated for each compound. An analysis of variance was conducted to compare the average number of probes on each treatment membrane. The number of probes for the control was taken as the 100% baseline and the percentage for the test compounds is the percent for the number of probes for the test compound compared to the number of control probes.

[2] = test system: brown marmorated stink bugs (BMSB); experiment: Brown marmorated stink bug repellency, treated vs. untreated filter paper arena
Protocol: The two semi-circle filter papers were aligned together to completely cover the bottom of the test arena. Control arenas were also set up in a similar fashion except both were treated with acetone. Five replicates of 5 BMSB were then introduced into both the treated and control arenas. By releasing them in the center of the arena, the BMSB were presented with a choice of treated vs. untreated substrate (or untreated vs. untreated in the control arenas). The repellency of the BMSB was recorded at 24 hours post-treatment.

Row | Compound | % Repellency 4 hr (German cockroaches) | Mean % repelled ([1]; 7.5% in isopropyl alcohol) | Mean % repelled ([1]; Neat) | ticks repelled [1] | Probes at 7% test compound (stable flies) | Probes at 15% test compound (stable flies) | repellency compared with DEET (stable flies) | % Repellency at 24 hours ([2]; 2.5% in isopropyl alcohol) | % Repellency at 24 hours ([2]; 5% in isopropyl alcohol)
1 | CCC(C)=CCCC(C)=CCC1CCCC1=O (stereo not drawn) [Methyl apritone, methyl apritone] | 100% | 100% | 100% | 100% | 28.8% | 7.4% | repelled better than DEET® |  | 
2 | CCCCCC1C(=O)CCC1CC(=O)OC (stereo not drawn) [Methyl dihydrojasmonate, methyl dihydrojasmonate] | 72.2% |  | 100% | 100% | 4.5% | 3.2% | repelled better than DEET® | 74% | 100%
